System: Alzheimer's disease
Assay: Pharmacoepidemiologic cohort analysis (MarketScan Medicare Supplemental database), incidence of AD
Assay type: in vivo, human
Source text: Because ac-tau has been generally reported in the brains of subjects with AD, we evaluated the relationship between salsalate or diflunisal use and incidence of clinically-diagnosed TBI or AD by analyzing 7.23 million U.S. commercially-insured individuals (MarketScan Medicare Supplemental database). We conducted two cohort analyses to evaluate the predicted association, based on individual level of longitudinal patient data and pharmacoepidemiologic methods, as previously established (Cheng et al., 2018). Thus, our two cohorts included: (1) salsalate vs. a matched aspirin population and (2) diflunisal vs. a matched aspirin population (Table 2). For each comparison, we estimated the un-stratified Kaplan-Meier curves and conducted propensity score (PS) stratified (n strata=10) log-rank tests and a Cox regression model after adjusting age, race, sex, and disease comorbidities (including diabetes, hypertension, and coronary artery disease) using a propensity score-matching method (Methods).
Study cohorts. The IBM® MarketScan® Medicare Supplemental Database is one of the first in the U.S. to profile the healthcare experience of retirees with Medicare supplemental insurance paid by employers. The MarketScan Medicare Supplemental Database provides detailed cost, use and outcomes data for healthcare services performed in both inpatient and outpatient settings. For most of the population, the medical claims are linked to outpatient prescription drug claims and person-level enrollment data through the use of unique patient or enrollee identifiers. […] This feature makes the database a robust tool for pharmacoeconomic and outcomes research and helps provide insight into the drug use and spending patterns of older Americans. In this study, the pharmacoepidemiology study utilized the MarketScan Medicare Claims database from 2012 to 2017. The dataset included individual-level diagnosis codes, procedure codes and pharmacy claim data for 7.23 million patients. Pharmacy prescriptions of salsalate, diflunisal, and aspirin were identified by using RxNorm and National Drug Code (NDC).
Outcome measurement. For a subject, a drug episode is defined as from drug initiation to drug discontinuation. Specifically, drug initiation is defined as the first day of drug supply (i.e. 1st prescription date). Drug discontinuation is defined as the last day of drug supply (i.e. last prescription date+days of supply) and without drug supply for the next 60 days. In another word, gaps of less than 60-day of drug supply were allowed within a drug episode. The drug cohort included the first drug episode for each subject. For the final cohorts, demographic variables including age, race, sex and geographical location were collected. […]

O=C(Oc1ccccc1C(=O)O)c1ccccc1O [salsalate]
incidence of AD, subgroup analysis (excluding patients with type 2 diabetes, hypertension, or coronary artery disease, vs. aspirin): associated with decreased incidence of AD | hazard ratio [HR], AD (vs. PS-matched aspirin cohort, Cox regression model, 6 years of follow-up): 0.57

— patent US20240201204A1, “Biomarker and Druggable Target of Neurodegeneration” (University Hospitals Cleveland Medical Center, priority 2020, published 2024)
